Data from patent US11918582B2 (RAPT Therapeutics, Inc., priority 2021, dated 2024).
Structures can show the parent of a compound that is named as a salt.

Target: T1, human HPK1 (MAP4K1) (Homo sapiens, UniProt Q92918)
T1 construct: Recombinant human HPK1 kinase domain was obtained from ThermoFisher (Cat. #PV6357) and SignalChem (Cat. #M23-11G); purchased ThermoFisher; SignalChem PV6357; M23-11G
T1 sequence (Q92918 17-274 limits assumed): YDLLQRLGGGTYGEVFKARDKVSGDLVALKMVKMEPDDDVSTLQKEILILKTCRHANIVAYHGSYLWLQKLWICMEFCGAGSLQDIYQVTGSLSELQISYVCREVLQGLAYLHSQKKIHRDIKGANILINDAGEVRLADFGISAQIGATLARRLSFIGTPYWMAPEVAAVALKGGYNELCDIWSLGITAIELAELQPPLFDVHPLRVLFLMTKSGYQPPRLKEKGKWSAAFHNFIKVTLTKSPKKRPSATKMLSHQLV
Assay: Biochemical assay for activity against HPK1 (ADP-Glo, MBP substrate)
Conditions: recombinant human HPK1 kinase domain, 1 nM enzyme, ADP-Glo luminescence
Method in brief: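 IC50s come from ADP-Glo luminescence after a 2 h room-temperature reaction phosphorylating MBP in the presence of ATP. Compound was first preincubated 15 min with 1 nM HPK1 kinase domain, human recombinant. Buffer: 50 mM HEPES pH 7.5, 150 mM NaCl, 3 mM TCEP, 10 mM MgCl2, 0.005% Tween-20, 0.01% BSA.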

SMILES | IC50
COc1cc2c(cc1Nc1ncc3cnn([C@H]4CC[C@H](O)CC4)c3n1)CN(CCO)CC2 [Example 156, trans-4-(6-((2-(2-hydroxyethyl)-6-methoxy-1,2,3,4-tetrahydroisoquinolin-7-yl)amino)-1H-pyrazolo[3,4-d]pyrimidin-1-yl)cyclohexan-1-ol] | < 100 nM
COc1cc2c(cc1Nc1ncc3cnn(C[C@@H]4CCC[C@H]4C(=O)O)c3n1)CN(C)CC2 [Example 157, (1R,2R)-2-[[6-[(6-methoxy-2-methyl-3,4-dihydro-1H-isoquinolin-7-yl)amino]pyrazolo[3,4-d]pyrimidin-1-yl]methyl]cyclopentanecarboxylic Acid] | < 100 nM
COc1cc2c(cc1Nc1ncc3cnn(C[C@H]4CCC[C@@H]4C(=O)O)c3n1)CN(C)CC2 [Example 158, (1S,2S)-2-[[6-[(6-methoxy-2-methyl-3,4-dihydro-1H-isoquinolin-7-yl)amino]pyrazolo[3,4-d]pyrimidin-1-yl]methyl]cyclopentanecarboxylic Acid] | < 100 nM
COc1cc2c(cc1Nc1ncc3cnn(C[C@@H]4[C@@H](C)[C@@H](O)CN4C(C)=O)c3n1)CN(C)CC2 [Example 163, 1-[(2S,3R,4S)-4-hydroxy-2-[[6-[(6-methoxy-2-methyl-3,4-dihydro-1H-isoquinolin-7-yl)amino]pyrazolo[3,4-d]pyrimidin-1-yl]methyl]-3-methyl-pyrrolidin-1-yl]ethenone] | < 100 nM
COc1cc2c(cc1Nc1ncc3cnn(C[C@@H]4[C@@H](C)[C@H](O)CN4C(C)=O)c3n1)CN(C)CC2 [Example 164, 1-[(2S,3R,4R)-4-hydroxy-2-[[6-[(6-methoxy-2-methyl-3,4-dihydro-1H-isoquinolin-7-yl)amino]pyrazolo[3,4-d]pyrimidin-1-yl]methyl]-3-methyl-pyrrolidin-1-yl]ethenone] | < 100 nM
COc1cc2c(cc1Nc1ncc3cnn([C@H]4CC[C@H](CO)CC4)c3n1)CN(CCO)CC2 [Example 167, 2-[7-[[1-[4-(hydroxymethyl)cyclohexyl]pyrazolo[3,4-d]pyrimidin-6-yl]amino]-6-methoxy-3,4-dihydro-1H-isoquinolin-2-yl]ethanol] | < 100 nM
CCN1CCc2cc(OC)c(Nc3ncc4cnn([C@H]5CC[C@H](CO)CC5)c4n3)cc2C1 [Example 168, [4-[6-[(2-ethyl-6-methoxy-3,4-dihydro-1H-isoquinolin-7-yl)amino]pyrazolo[3,4-d]pyrimidin-1-yl]cyclohexyl]methanol] | < 100 nM
COc1cc2c(cc1Nc1ncc3cnn([C@H]4CC[C@H](CO)CC4)c3n1)CN(CCF)CC2 [Example 169, [4-[6-[[2-(2-fluoroethyl)-6-methoxy-3,4-dihydro-1H-isoquinolin-7-yl]amino]pyrazolo[3,4-d]pyrimidin-1-yl]cyclohexyl]methanol] | < 100 nM
COc1nc2c(cc1Nc1ncc3cnn([C@H]4CC[C@H](CO)CC4)c3n1)CN(C)CC2 [Example 170] | < 100 nM
COc1cc2c(cc1Nc1ncc3cnn(C[C@@H]4CC[C@H](C)N4C(C)=O)c3n1)CN(C)CC2 [Example 171, 1-[(2S,5S)-2-[[6-[(6-methoxy-2-methyl-3,4-dihydro-1H-isoquinolin-7-yl)amino]pyrazolo[3,4-d]pyrimidin-1-yl]methyl]-5-methyl-pyrrolidin-1-yl]ethanone] | < 100 nM
COc1nc2c(cc1Nc1ncc3cnn(C[C@@H]4CC[C@H](C)N4C(C)=O)c3n1)CN(C)CC2 [Example 172, 1-[(2S,5S)-2-[[6-[(2-methoxy-6-methyl-7,8-dihydro-5H-1,6-naphthyridin-3-yl)amino]pyrazolo[3,4-d]pyrimidin-1-yl]methyl]-5-methyl-pyrrolidin-1-yl]ethenone] | < 100 nM
COc1nc2c(cc1Nc1ncc3cnn(C[C@@H]4CC[C@@H](C)N4C(C)=O)c3n1)CN(C)CC2 [Example 173, 1-[(2S,5R)-2-[[6-[(2-methoxy-6-methyl-7,8-dihydro-5H-1,6-naphthyridin-3-yl)amino]pyrazolo[3,4-d]pyrimidin-1-yl]methyl]-5-methyl-pyrrolidin-1-yl]ethenone Methanesulfonic Acid] | < 100 nM
COc1cc2c(cc1Nc1ncc3cnn(C[C@@H]4CC[C@@H](C)N4C(C)=O)c3n1)CN(C)CC2 [Example 174] | < 100 nM
COC[C@H]1CC[C@H](n2ncc3cnc(Nc4cc5c(cc4OC)CCN(C)C5)nc32)CC1 [Example 175, 6-methoxy-N-[trans-1-[4-(methoxymethyl)cyclohexyl]pyrazolo[3,4-d]pyrimidin-6-yl]-2-methyl-3,4-dihydro-1H-isoquinolin-7-amine] | < 100 nM
COc1cc2c(cc1Nc1ncc3cnn(C[C@@H]4CCC(C)(C)N4C(C)=O)c3n1)CN(C)CC2 [Example 176, 1-[(5S)-5-[[6-[(6-methoxy-2-methyl-3,4-dihydro-1H-isoquinolin-7-yl)amino]pyrazolo[3,4-d]pyrimidin-1-yl]ymethyl]-2,2-dimethyl-pyrrolidin-1-yl]ethenone] | < 100 nM
COc1nc2c(cc1Nc1ncc3cnn(C[C@@H]4CCC(C)(C)N4C(C)=O)c3n1)CN(C)CC2 [Example 177, 1-[(5S)-5-[[6-[(2-methoxy-6-methyl-7,8-dihydro-5H-1,6-naphthyridin-3-yl)amino]pyrazolo[3,4-d]pyrimidin-1-yl]methyl]-2,2-dimethyl-pyrrolidin-1-yl]ethenone] | < 100 nM
COc1cc2c(cc1Nc1ncc3cnn(C[C@@H]4CCCN4C(C)=O)c3n1)C(C)(C)N(C)CC2 [Example 178, (S)-1-(2-((6-((6-methoxy-1,1,2-trimethyl-1,2,3,4-tetrahydroisoquinolin-7-yl)amino)-1H-pyrazolo[3,4-d]pyrimidin-1-yl)methyl)pyrrolidin-1-yl)ethan-1-one] | < 100 nM
CN1CCc2c(cc(Nc3ncc4cnn([C@H]5CC[C@@H](O)CC5)c4n3)cc2C(F)(F)F)C1 [Example 179, (1s,4s)-4-(6-((2-methyl-5-(trifluoromethyl)-1,2,3,4-tetrahydroisoquinolin-7-yl)amino)-1H-pyrazolo[3,4-d]pyrimidin-1-yl)cyclohexan-1-ol] | < 100 nM
CN1CCc2c(cc(Nc3ncc4cnn([C@@H]5CCC[C@@H](C(N)=O)C5)c4n3)cc2C(F)(F)F)C1 [Example 180, (1R,3R)-3-(6-((2-methyl-5-(trifluoromethyl)-1,2,3,4-tetrahydroisoquinolin-7-yl)amino)-1H-pyrazolo[3,4-d]pyrimidin-1-yl)cyclohexane-1-carboxamide] | < 100 nM
COc1nc2c(cc1Nc1ncc3cnn([C@@H]4CCC[C@@H](C(N)=O)C4)c3n1)CN(C)CC2 [Example 181, (1R,3R)-3-(6-((2-methoxy-6-methyl-5,6,7,8-tetrahydro-1,6-naphthyridin-3-yl)amino)-1H-pyrazolo[3,4-d]pyrimidin-1-yl)cyclohexane-1-carboxamide Mesylate] | < 100 nM
CC(=O)N1CCC[C@H]1Cn1ncc2cnc(Nc3cc4c(cc3C)CCN(C)C4)nc21 [Example 183, (S)-1-(2-((6-((2,6-dimethyl-1,2,3,4-tetrahydroisoquinolin-7-yl)amino)-1H-pyrazolo[3,4-d]pyrimidin-1-yl)methyl)pyrrolidin-1-yl)ethan-1-one] | < 100 nM
COc1cc2c(cc1Nc1ncc3cnn(C[C@@H]4CCCN4C(C)=O)c3n1)[C@@H](C)N(C)CC2 [Example 184, 1-((S)-2-((6-(((R)-6-methoxy-1,2-dimethyl-1,2,3,4-tetrahydroisoquinolin-7-yl)amino)-1H-pyrazolo[3,4-d]pyrimidin-1-yl)methyl)pyrrolidin-1-yl)ethan-1-one] | < 100 nM
COc1cc2c(cc1Nc1ncc3cnn(C[C@@H]4CCCN4C(C)=O)c3n1)[C@H](C)N(C)CC2 [Example 185, 1-((S)-2-((6-(((S)-6-methoxy-1,2-dimethyl-1,2,3,4-tetrahydroisoquinolin-7-yl)amino)-1H-pyrazolo[3,4-d]pyrimidin-1-yl)methyl)pyrrolidin-1-yl)ethan-1-one hydrochloride] | < 100 nM
COc1cc2c(cc1Nc1ncc3cnn(C[C@@H]4CCCN4C(=O)C(F)F)c3n1)CN(C)CC2 [Example 186, (S)-2,2-difluoro-1-(2-((6-((6-methoxy-2-methyl-1,2,3,4-tetrahydroisoquinolin-7-yl)amino)-1H-pyrazolo[3,4-d]pyrimidin-1-yl)methyl)pyrrolidin-1-yl)ethan-1-one] | < 100 nM
COc1nc2c(cc1Nc1ncc3cnn([C@H]4CC[C@H](O)CC4)c3n1)CN(C)CC2 [Example 187, (1r,4r)-4-(6-((2-methoxy-6-methyl-5,6,7,8-tetrahydro-1,6-naphthyridin-3-yl)amino)-1H-pyrazolo[3,4-d]pyrimidin-1-yl)cyclohexan-1-ol] | < 100 nM
COc1cc2c(cc1Nc1ncc3cnn(C[C@@H]4[C@H](C)CCN4C(C)=O)c3n1)CN(C)CC2 [Example 189, 1-((2S,3R)-2-((6-((6-methoxy-2-methyl-1,2,3,4-tetrahydroisoquinolin-7-yl)amino)-1H-pyrazolo[3,4-d]pyrimidin-1-yl)methyl)-3-methylpyrrolidin-1-yl)ethan-1-one] | < 100 nM
COc1cc2c(cc1Nc1ncc3cnn(C[C@@H]4CCCN4S(N)(=O)=O)c3n1)CN(C)CC2 [Example 190, (S)-2-((6-((6-methoxy-2-methyl-1,2,3,4-tetrahydroisoquinolin-7-yl)amino)-1H-pyrazolo[3,4-d]pyrimidin-1-yl)methyl)pyrrolidine-1-sulfonamide hydrochloride] | < 100 nM
